Measured values as given in PubChem BioAssay (NCI).
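Cultured in 96-well plates, cells were exposed to test compound for 48 hours across five concentrations. GI50 marks 50% less growth. Definition used: TGI = concentration required for complete inhibition of growth.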

Experiments:
Experiment in all cases: growth of human tumour cells (NCI), 48 h
NCI-H226 lung = tested on: NCI-H226 lung
U251 CNS = tested on: U251 CNS
MDA-MB-435 = tested on: MDA-MB-435
IGROV1 ovarian = tested on: IGROV1 ovarian
SN12C renal = tested on: SN12C renal
DU-145 prostate = tested on: DU-145 prostate
MALME-3M melanoma = tested on: MALME-3M melanoma
UO-31 renal = tested on: UO-31 renal
NCI-H23 lung = tested on: NCI-H23 lung
A498 renal = tested on: A498 renal
HCC-2998 colon = tested on: HCC-2998 colon
LOX IMVI melanoma = tested on: LOX IMVI melanoma
NCI/ADR-RES ovarian = tested on: NCI/ADR-RES ovarian
SK-OV-3 ovarian = tested on: SK-OV-3 ovarian
SNB-19 CNS = tested on: SNB-19 CNS
UACC-257 melanoma = tested on: UACC-257 melanoma
NCI-H460 lung = tested on: NCI-H460 lung
SK-MEL-2 melanoma = tested on: SK-MEL-2 melanoma
M14 melanoma = tested on: M14 melanoma
MOLT-4 leukemia = tested on: MOLT-4 leukemia
OVCAR-5 ovarian = tested on: OVCAR-5 ovarian
OVCAR-8 ovarian = tested on: OVCAR-8 ovarian
SR leukemia = tested on: SR leukemia
HT29 colon = tested on: HT29 colon
T-47D breast = tested on: T-47D breast
A549 NSCLC = tested on: A549 NSCLC
SF-268 CNS = tested on: SF-268 CNS
COLO 205 colon = tested on: COLO 205 colon
HS 578T breast = tested on: HS 578T breast
SNB-75 CNS = tested on: SNB-75 CNS
SF-539 CNS = tested on: SF-539 CNS
HL-60(TB) leukemia = tested on: HL-60(TB) leukemia
HOP-92 NSCLC = tested on: HOP-92 NSCLC
SK-MEL-28 melanoma = tested on: SK-MEL-28 melanoma
MDA-MB-231 breast = tested on: MDA-MB-231 breast
SK-MEL-5 melanoma = tested on: SK-MEL-5 melanoma
TK-10 renal = tested on: TK-10 renal
HCT-116 colon = tested on: HCT-116 colon
ACHN renal = tested on: ACHN renal
RPMI-8226 leukemia = tested on: RPMI-8226 leukemia
CAKI-1 renal = tested on: CAKI-1 renal
786-0 renal = tested on: 786-0 renal
HOP-62 NSCLC = tested on: HOP-62 NSCLC
SF-295 CNS = tested on: SF-295 CNS
OVCAR-3 ovarian = tested on: OVCAR-3 ovarian
OVCAR-4 ovarian = tested on: OVCAR-4 ovarian

## O=c1oc2cc(OS(=O)(=O)c3ccc(F)cc3)ccc2c2c1CCCCC2
NCI-H226 lung
  GI50: > 100 µM
  TGI: > 100 µM
U251 CNS
  GI50: > 100 µM
  TGI: > 100 µM
MDA-MB-435
  GI50: > 100 µM
  TGI: > 100 µM
IGROV1 ovarian
  GI50: > 100 µM
  TGI: > 100 µM
SN12C renal
  GI50: > 100 µM
  TGI: > 100 µM
DU-145 prostate
  GI50: > 100 µM
  TGI: > 100 µM
MALME-3M melanoma
  GI50: > 100 µM
  TGI: > 100 µM
UO-31 renal
  GI50: > 100 µM
  TGI: > 100 µM
NCI-H23 lung
  GI50: > 100 µM
  TGI: > 100 µM
A498 renal
  GI50: > 100 µM
  TGI: > 100 µM
HCC-2998 colon
  GI50: > 100 µM
  TGI: > 100 µM
LOX IMVI melanoma
  GI50: > 100 µM
  TGI: > 100 µM
NCI/ADR-RES ovarian
  GI50: > 100 µM
  TGI: > 100 µM
SK-OV-3 ovarian
  GI50: > 100 µM
  TGI: > 100 µM
SNB-19 CNS
  GI50: > 100 µM
  TGI: > 100 µM
UACC-257 melanoma
  GI50: > 100 µM
  TGI: > 100 µM
NCI-H460 lung
  GI50: > 100 µM
  TGI: > 100 µM
SK-MEL-2 melanoma
  GI50: > 100 µM
  TGI: > 100 µM
M14 melanoma
  GI50: > 100 µM
  TGI: > 100 µM
MOLT-4 leukemia
  GI50: > 100 µM
  TGI: > 100 µM
OVCAR-5 ovarian
  GI50: > 100 µM
  TGI: > 100 µM
OVCAR-8 ovarian
  GI50: > 100 µM
  TGI: > 100 µM
SR leukemia
  GI50: > 100 µM
  TGI: > 100 µM
HT29 colon
  GI50: 1040 nM
  TGI: > 100 µM
T-47D breast
  GI50: 1860 nM
  TGI: > 100 µM
A549 NSCLC
  GI50: > 100 µM
  TGI: > 100 µM
SF-268 CNS
  GI50: > 100 µM
  TGI: > 100 µM
COLO 205 colon
  GI50: 2170 nM
  TGI: > 100 µM
HS 578T breast
  GI50: 55.2 µM
  TGI: > 100 µM
SNB-75 CNS
  GI50: 19.6 µM
  TGI: > 100 µM
SF-539 CNS
  GI50: > 100 µM
  TGI: > 100 µM
HL-60(TB) leukemia
  GI50: > 100 µM
  TGI: > 100 µM
HOP-92 NSCLC
  GI50: 4.05 µM
  TGI: 95.1 µM
SK-MEL-28 melanoma
  GI50: > 100 µM
  TGI: > 100 µM
MDA-MB-231 breast
  GI50: > 100 µM
  TGI: > 100 µM
SK-MEL-5 melanoma
  GI50: 5.69 µM
  TGI: > 100 µM
TK-10 renal
  GI50: > 100 µM
  TGI: > 100 µM
HCT-116 colon
  GI50: 6.24 µM
  TGI: > 100 µM
ACHN renal
  GI50: > 100 µM
  TGI: > 100 µM
RPMI-8226 leukemia
  GI50: 3.7 µM
  TGI: > 100 µM
CAKI-1 renal
  GI50: > 100 µM
  TGI: > 100 µM
786-0 renal
  GI50: > 100 µM
  TGI: > 100 µM
HOP-62 NSCLC
  GI50: 45.1 µM
  TGI: > 100 µM
SF-295 CNS
  GI50: > 100 µM
  TGI: > 100 µM
OVCAR-3 ovarian
  GI50: > 100 µM
  TGI: > 100 µM
OVCAR-4 ovarian
  GI50: 5.76 µM
  TGI: > 100 µM
